{
  "source": "patent US10851165B2",
  "about": "“Antibody molecules to PD-L1 and methods of treating cancer” (Novartis AG, priority 2014, dated 2020)",
  "key": {"[1]": {"tested_on": "PD-L1 (CD274) in EBC-1 cells", "assay": "PD-L1 surface expression by flow cytometry in EBC-1 cells in vitro", "format": "cell-based, human", "details": "EBC-1 cells (NSCLC with cMET amplification) in vitro; 10 nM, 100 nM, 1000 nM; 24, 48 and 72 hours; vs DMSO", "procedure": "EBC-1 cells are non-small cell lung cancer cells with a cMET amplification.\nPD-L1 (CD274) expression was analyzed in cancer cell lines treated with Compound A17. Cells were obtained from ATCC and cultured in vitro following ATCC directions. The cell lines used were previously characterized by the Cancer Cell Line Encyclopedia Project (http://www.broadinstitute.org/ccle/home).\nCells plated in six-well culture plates were treated with the Compound A17 at different concentrations (10 nM, 100 nM, and 1000 nM) for 24, 48 and 72 hours. Equal amount of vehicle (DMSO) was used as a control. Cells were washed with PBS and then harvested using a cell scraper.\nFor each reaction, 0.5-1×10^6 cells were stained with 20 μL of anti-human monoclonal PD-L1-PE antibody, clone M1H1 (BD) for 30-60 minutes at 4° C. Cells were washed twice and data was acquired using a Canto II with FACSDiva software (BD Bioscience). Data analysis was performed using FlowJo software (Tree Star). Mean fluorescence intensity (MFI) was determined by gating on single cells. Unstained cells were used as a gating control."}, "[2]": {"tested_on": "PD-L1 (CD274) mRNA in Hs.746.T tumor", "assay": "PD-L1 mRNA by TaqMan RT PCR in Hs.746.T tumor xenograft", "format": "in vivo, human", "details": "Hs.746.T tumor (gastric cancer cell with cMET amplification & mutation) xenograft", "procedure": "Hs.746.T cells are gastric cancer cells with a c-MET amplification and a c-MET mutation.\n(§1) Isolated RNA was frozen at −80° C.\n(§2) Each sample was run in triplicate."}, "[3]": {"tested_on": "PD-L1 (CD274) mRNA in LOXIMV1 tumors", "assay": "PD-L1 mRNA by TaqMan RT PCR in LOXIMV1 tumor xenograft model", "format": "in vivo, human", "details": "tumor xenograft model bearing LOXIMV1 (BRAF mutant melanoma)", "procedure": "as §1, §2"}, "[4]": {"tested_on": "PD-L1 (CD274) mRNA in UKE-1 tumors", "assay": "PD-L1 mRNA by TaqMan RT PCR in UKE-1 tumor xenograft model", "details": "tumor xenograft model bearing UKE-1 (MPN line with JAK2V617F mutation)"}, "[5]": {"tested_on": "PD-L1 (CD274) mRNA in HEYA8 tumors", "assay": "PD-L1 mRNA by TaqMan RT PCR in HEYA8 tumor xenograft model", "format": "in vivo, human", "details": "tumor xenograft model bearing HEYA8 (KRAF mutant ovarian cancer)", "procedure": "as §1, §2"}, "[6]": {"tested_on": "PD-L1 (CD274) mRNA in H3122 cells", "assay": "PD-L1 mRNA by TaqMan RT PCR in H3122 cells in vitro", "format": "cell-based, human", "details": "H3122 (NSCLC with ALK translocation) in vitro", "procedure": "H3122 cells are non-small cell lung cancer (NSCLC) cells with an ALK translocation.\nas §1, §2"}, "huPD-L1": {"biological_target": "T1, huPD-L1 (Homo sapiens, UniProt Q9NZQ7)", "T1 construct": "expressed in transfected cells; host or cells: 300.19 cells", "T1 sequence (Q9NZQ7 19-290)": "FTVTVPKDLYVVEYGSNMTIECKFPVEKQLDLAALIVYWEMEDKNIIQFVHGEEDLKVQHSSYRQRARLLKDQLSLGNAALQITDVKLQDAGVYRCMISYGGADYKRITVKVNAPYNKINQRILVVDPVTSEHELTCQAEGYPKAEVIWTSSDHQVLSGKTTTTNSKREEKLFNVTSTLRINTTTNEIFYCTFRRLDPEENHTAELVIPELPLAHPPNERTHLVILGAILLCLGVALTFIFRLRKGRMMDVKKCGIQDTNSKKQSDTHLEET", "assay": "FACS binding of chimeric and humanized BAP058 mAbs to 300.19 cells expressing huPD-L1", "details": "300.19 cell line expressing huPD-L1 on the cell surface", "procedure": "FIG. 3 is a bar graph showing the results of FACS binding analysis for the seventeen humanized BAP058 clones (BAP058-hum01 to BAP058-hum17). The antibody concentrations are 200, 100, 50, 25 and 12.5 ng/ml from the leftmost bar to the rightmost bar for each tested mAb.\nHumanization of BAP058 was performed using a combinatorial library of human germline variable region frameworks (FWs). The technology entails transferring the murine CDRs in frame to a library of human variable regions (VRs) that had been constructed by randomly combining human germ line FW1, FW2 and FW3 sequences. Only one FW4 sequence was used, which is […] (SEQ ID NO: 154) for the heavy chain (HC) (Kabat human HC subgroup I, No. 21) and […] (SEQ ID NO: 186) for the light chain (LC) (Kabat human κ subgroup I, No. 5). The library of VR sequences was fused to human constant region (CR) sequences, human IgG4 (S228P) of HC and human κ CR of LC, and the resulting library of whole IgG mAbs was expressed in CHO cells for screening. Screening was performed with tissue culture supernatants measuring binding avidity on antigen-expressing cells in a whole cell ELISA format or on FACS.\nBinding of the recombinant clone to human PD-L1 was tested using the 300.19 cell line expressing huPD-L1 on the cell surface and FACS analysis."}},
  "data": [
    {"molecule": "CNC(=O)c1ccc(-c2cnc3ncc(Cc4ccc5ncccc5c4)n3n2)cc1F", "note": "[Compound A17, 2-fluoro-N-methyl-4-(7-(quinolin-6-ylmethyl)imidazo[1,2-b][1,2,4]triazin-2-yl)benzamide]", "values": [
      {"measurement": "surface expression of PD-L1 (flow cytometry)", "setting": "[1]", "result": "significant downregulation of surface expression of PD-L1"},
      {"measurement": "PD-L1 expression (mRNA)", "setting": "[2]", "result": "Inhibition of PD-L1 expression (mRNA)"}
    ]},
    {"molecule": "COC(=O)N[C@@H](C)CNc1nccc(-c2cn(C(C)C)nc2-c2cc(Cl)cc(NS(C)(=O)=O)c2F)n1", "note": "[Compound A29, Encorafenib]", "values": [
      {"measurement": "PD-L1 mRNA", "setting": "[3]", "result": "Downregulation of PD-L1 mRNA"}
    ]},
    {"molecule": "N#CC[C@H](C1CCCC1)n1cc(-c2ncnc3[nH]ccc23)cn1", "note": "[Compound A18, Ruxolitinib Phosphate]", "values": [
      {"measurement": "PD-L1 mRNA", "setting": "[4]", "result": "Downregulation of PD-L1 mRNA"}
    ]},
    {"molecule": "Cn1cnc2c(F)c(Nc3ccc(Br)cc3F)c(C(=O)NOCCO)cc21", "note": "[Compound A34, Binimetinib]", "values": [
      {"measurement": "PD-L1 mRNA", "setting": "[5]", "result": "Downregulation of PD-L1 mRNA"}
    ]},
    {"molecule": "Cc1cc(Nc2ncc(Cl)c(Nc3ccccc3S(=O)(=O)C(C)C)n2)c(OC(C)C)cc1C1CCNCC1", "note": "[Compound A23, ceritinib]", "values": [
      {"measurement": "PD-L1 mRNA", "setting": "[6]", "result": "Inhibition of PD-L1 mRNA"}
    ]},
    {"molecule": "BAP058-chi: chimeric mAb: murine VR, human IgG4 (S228P), human κ (antibody, V domains shown) VH: EVQLQQSGAELVKPGASVKLSCKASGYTFTSYWMYWVKQGPGRGLEWIGRIDPNSGSTKYNEKFKNKATLTVDKSSSTAYMQLSSLTSEDSAVYYCARDYRKGLYAMDYWGQGTTVTVSS VL: DIMMTQSHKFMSTSVGDRVSITCKASQDVGTAVAWYQQKPGQSPKLLIYWASTRHTGVPDRFTGSGSGTDFTLTISNVQSEDLADYFCQQYNSYPLTFGQGTKVEIK", "values": [
      {"measurement": "Binding to human PD-L1 (FACS analysis)", "setting": "huPD-L1", "result": "bound well to the antigen"}
    ]}
  ]
}
